# Results reported in the supplement of paper PMC10307832.
# Experiments:
# Experiment in all cases: relative viability (nuclei count vs DMSO), 5 days (fraction); higher = more cells survive
# COR-L23 = test system: COR-L23
# Summary of the method: (§1)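 Nuclei were stained with Hoechst during a one-step fixation (final 0.05% Triton X-100, 1% formaldehyde, 1 ug/ml Hoechst) carried out 5 days after dosing, then counted on 4× images. The cells, lung cancer lines in 1536-well plates, had been dosed by pin tool the day after seeding with one drug alone or a fixed anchor-drug dose plus five library-drug doses (not always all listed) in √10 steps. Relative viability is the nuclei count in treated wells divided by that in vehicle wells, and each value is the median of duplicate plates.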
# ChaGo-K-1 = test system: ChaGo-K-1
# Summary of the method: as §1
# EPLC-272H = test system: EPLC-272H
# Summary of the method: as §1
# H3255 = test system: H3255
# Summary of the method: as §1
# HARA = test system: HARA
# Summary of the method: as §1
# HCC-78 = test system: HCC-78
# Summary of the method: as §1
# HOP-62 = test system: HOP-62
# Summary of the method: as §1
# LCLC-97TM1 = test system: LCLC-97TM1
# Summary of the method: as §1
# LXF-289 = test system: LXF-289
# Summary of the method: as §1
# NCI-H1395 = test system: NCI-H1395
# Summary of the method: as §1
# NCI-H1437 = test system: NCI-H1437
# Summary of the method: as §1
# NCI-H1650 = test system: NCI-H1650
# Summary of the method: as §1
# NCI-H1666 = test system: NCI-H1666
# Summary of the method: as §1
# NCI-H1793 = test system: NCI-H1793
# Summary of the method: as §1
# NCI-H1944 = test system: NCI-H1944
# Summary of the method: as §1
# NCI-H2085 = test system: NCI-H2085
# Summary of the method: as §1
# NCI-H2087 = test system: NCI-H2087
# Summary of the method: as §1
# NCI-H2126 = test system: NCI-H2126
# Summary of the method: as §1
# NCI-H3122 = test system: NCI-H3122
# Summary of the method: as §1
# NCI-H441 = test system: NCI-H441
# Summary of the method: as §1
# NCI-H596 = test system: NCI-H596
# Summary of the method: as §1
# NCI-H661 = test system: NCI-H661
# Summary of the method: as §1
# PC-14 = test system: PC-14
# Summary of the method: as §1
structure (smiles),measurement,setting,value
Cc1csc(=NC2CCCCC2)n1/N=C/c1ccc(O)c(O)c1O [MIM1] + CS(=O)(=O)N1CCN(Cc2cc3nc(-c4cccc5[nH]ncc45)nc(N4CCOCC4)c3s2)CC1 [Pictilisib] (partner 1 µM),relative viability,COR-L23; first compound 0.2 µM,0.692
same,relative viability,COR-L23; first compound 0.6325 µM,0.654
same,relative viability,COR-L23; first compound 2 µM,0.844
same,relative viability,COR-L23; first compound 6.325 µM,0.525
same,relative viability,COR-L23; first compound 20 µM,0.217
same,relative viability,ChaGo-K-1; first compound 0.2 µM,0.876
same,relative viability,ChaGo-K-1; first compound 0.6325 µM,0.629
same,relative viability,ChaGo-K-1; first compound 2 µM,0.863
same,relative viability,ChaGo-K-1; first compound 6.325 µM,0.644
same,relative viability,ChaGo-K-1; first compound 20 µM,0.265
same,relative viability,EPLC-272H; first compound 0.2 µM,0.355
same,relative viability,EPLC-272H; first compound 0.6325 µM,0.339
same,relative viability,EPLC-272H; first compound 2 µM,0.334
same,relative viability,EPLC-272H; first compound 6.325 µM,0.3
same,relative viability,EPLC-272H; first compound 20 µM,0.235
same,relative viability,H3255; first compound 0.2 µM,0.429
same,relative viability,H3255; first compound 0.6325 µM,0.54
same,relative viability,H3255; first compound 2 µM,0.459
same,relative viability,H3255; first compound 6.325 µM,0.478
same,relative viability,H3255; first compound 20 µM,0.416
same,relative viability,HARA; first compound 0.2 µM,0.333
same,relative viability,HARA; first compound 0.6325 µM,0.328
same,relative viability,HARA; first compound 2 µM,0.476
same,relative viability,HARA; first compound 6.325 µM,0.307
same,relative viability,HARA; first compound 20 µM,0.124
same,relative viability,HCC-78; first compound 0.2 µM,0.251
same,relative viability,HCC-78; first compound 0.6325 µM,0.23
same,relative viability,HCC-78; first compound 2 µM,0.228
same,relative viability,HCC-78; first compound 6.325 µM,0.34
same,relative viability,HCC-78; first compound 20 µM,0.185
same,relative viability,HOP-62; first compound 0.2 µM,0.803
same,relative viability,HOP-62; first compound 0.6325 µM,0.437
same,relative viability,HOP-62; first compound 2 µM,0.724
same,relative viability,HOP-62; first compound 6.325 µM,0.642
same,relative viability,HOP-62; first compound 20 µM,0.127
same,relative viability,LCLC-97TM1; first compound 0.2 µM,0.22
same,relative viability,LCLC-97TM1; first compound 0.6325 µM,0.178
same,relative viability,LCLC-97TM1; first compound 2 µM,0.228
same,relative viability,LCLC-97TM1; first compound 6.325 µM,0.18
same,relative viability,LCLC-97TM1; first compound 20 µM,0.108
same,relative viability,LXF-289; first compound 0.2 µM,0.757
same,relative viability,LXF-289; first compound 0.6325 µM,0.689
same,relative viability,LXF-289; first compound 2 µM,0.823
same,relative viability,LXF-289; first compound 6.325 µM,0.676
same,relative viability,LXF-289; first compound 20 µM,0.522
same,relative viability,NCI-H1395; first compound 0.2 µM,0.666
same,relative viability,NCI-H1395; first compound 0.6325 µM,0.61
same,relative viability,NCI-H1395; first compound 2 µM,0.509
same,relative viability,NCI-H1395; first compound 6.325 µM,0.377
same,relative viability,NCI-H1395; first compound 20 µM,0.365
same,relative viability,NCI-H1437; first compound 0.2 µM,0.482
same,relative viability,NCI-H1437; first compound 0.6325 µM,0.382
same,relative viability,NCI-H1437; first compound 2 µM,0.516
same,relative viability,NCI-H1437; first compound 6.325 µM,0.269
same,relative viability,NCI-H1437; first compound 20 µM,0.128
same,relative viability,NCI-H1650; first compound 0.2 µM,0.595
same,relative viability,NCI-H1650; first compound 0.6325 µM,0.545
same,relative viability,NCI-H1650; first compound 2 µM,0.434
same,relative viability,NCI-H1650; first compound 6.325 µM,0.176
same,relative viability,NCI-H1650; first compound 20 µM,0.167
same,relative viability,NCI-H1666; first compound 0.2 µM,0.605
same,relative viability,NCI-H1666; first compound 0.6325 µM,0.398
same,relative viability,NCI-H1666; first compound 2 µM,0.476
same,relative viability,NCI-H1666; first compound 6.325 µM,0.422
same,relative viability,NCI-H1666; first compound 20 µM,0.311
same,relative viability,NCI-H1793; first compound 0.2 µM,0.402
same,relative viability,NCI-H1793; first compound 0.6325 µM,0.314
same,relative viability,NCI-H1793; first compound 2 µM,0.344
same,relative viability,NCI-H1793; first compound 6.325 µM,0.34
same,relative viability,NCI-H1793; first compound 20 µM,0.217
same,relative viability,NCI-H1944; first compound 0.2 µM,0.394
same,relative viability,NCI-H1944; first compound 0.6325 µM,0.335
same,relative viability,NCI-H1944; first compound 2 µM,0.296
same,relative viability,NCI-H1944; first compound 6.325 µM,0.34
same,relative viability,NCI-H1944; first compound 20 µM,0.384
same,relative viability,NCI-H2085; first compound 0.2 µM,0.441
same,relative viability,NCI-H2085; first compound 0.6325 µM,0.431
same,relative viability,NCI-H2085; first compound 2 µM,0.518
same,relative viability,NCI-H2085; first compound 6.325 µM,0.461
same,relative viability,NCI-H2085; first compound 20 µM,0.631
same,relative viability,NCI-H2087; first compound 0.2 µM,0.959
same,relative viability,NCI-H2087; first compound 0.6325 µM,0.588
same,relative viability,NCI-H2087; first compound 2 µM,0.969
same,relative viability,NCI-H2087; first compound 6.325 µM,0.584
same,relative viability,NCI-H2087; first compound 20 µM,0.315
same,relative viability,NCI-H2126; first compound 0.2 µM,0.516
same,relative viability,NCI-H2126; first compound 0.6325 µM,0.481
same,relative viability,NCI-H2126; first compound 2 µM,0.482
same,relative viability,NCI-H2126; first compound 6.325 µM,0.467
same,relative viability,NCI-H2126; first compound 20 µM,0.344
same,relative viability,NCI-H3122; first compound 0.2 µM,0.644
same,relative viability,NCI-H3122; first compound 0.6325 µM,0.529
same,relative viability,NCI-H3122; first compound 2 µM,0.701
same,relative viability,NCI-H3122; first compound 6.325 µM,0.578
same,relative viability,NCI-H3122; first compound 20 µM,0.394
same,relative viability,NCI-H441; first compound 0.2 µM,0.541
same,relative viability,NCI-H441; first compound 0.6325 µM,0.468
same,relative viability,NCI-H441; first compound 2 µM,0.539
same,relative viability,NCI-H441; first compound 6.325 µM,0.382
same,relative viability,NCI-H441; first compound 20 µM,0.147
same,relative viability,NCI-H596; first compound 0.2 µM,0.419
same,relative viability,NCI-H596; first compound 0.6325 µM,0.457
same,relative viability,NCI-H596; first compound 2 µM,0.406
same,relative viability,NCI-H596; first compound 6.325 µM,0.352
same,relative viability,NCI-H596; first compound 20 µM,0.402
same,relative viability,NCI-H661; first compound 0.2 µM,0.388
same,relative viability,NCI-H661; first compound 0.6325 µM,0.367
same,relative viability,NCI-H661; first compound 2 µM,0.357
same,relative viability,NCI-H661; first compound 6.325 µM,0.38
same,relative viability,NCI-H661; first compound 20 µM,0.345
same,relative viability,PC-14; first compound 0.2 µM,0.629
same,relative viability,PC-14; first compound 0.6325 µM,0.709
same,relative viability,PC-14; first compound 2 µM,0.628
same,relative viability,PC-14; first compound 6.325 µM,0.55
same,relative viability,PC-14; first compound 20 µM,0.488
